According to PMC6979384, “Characterization of the plant homeodomain (PHD) reader family for their histone tail interactions” (Epigenetics & Chromatin, 2020):

Key:
Test in all cases: Histone peptide microarray
Assay type in all cases: binding, human
Conditions in all cases: total n = 4
AIRE (PP) = system: AIRE (PP)
In short: (§1)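 GST-tagged PHD readers, 0.5 μM, probed on a microarray of 293 synthetic histone peptides carrying single or combinatorial PTMs (optimized Petell protocol). Signals are averaged over 4 replicates and expressed as relative binding.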

BAZ2B = system: BAZ2B
In short: as §1

BPTF (PB) = system: BPTF (PB)
In short: as §1

CHD4 (PPCC) = system: CHD4 (PPCC)
In short: as §1

CHD5 (PCC) = system: CHD5 (PCC)
In short: as §1

CHD5 (PPCC) = system: CHD5 (PPCC)
In short: as §1

DIDO1 = system: DIDO1
In short: as §1

DPF2 (PPC2W2) = system: DPF2 (PPC2W2)
In short: as §1

ING1 = system: ING1
In short: as §1

ING2 = system: ING2
In short: as §1

ING3 = system: ING3
In short: as §1

ING4 = system: ING4
In short: as §1

ING5 = system: ING5
In short: as §1

KDM4C (TTP) = system: KDM4C (TTP)
In short: as §1

KDM5A (1) = system: KDM5A (1)
In short: as §1

KDM5A (3) = system: KDM5A (3)
In short: as §1

KDM5B (1) = system: KDM5B (1)
In short: as §1

KDM5B (3) = system: KDM5B (3)
In short: as §1

KDM7A = system: KDM7A
In short: as §1

MLL5 = system: MLL5
In short: as §1

MORC3 (CW) = system: MORC3 (CW)
In short: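 Purified PHD finger domains fused to GST are screened against 293 synthetic histone peptides bearing one or several post-translational modifications. The protein is used at 0.5 μM, and the signal from four replicate arrays is averaged, with standard deviation given.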

PHF13 = system: PHF13
In short: as §1

PHF21A = system: PHF21A
In short: as §1

PHF23 = system: PHF23
In short: as §1

PHF2 = system: PHF2
In short: as §1

PHF8 = system: PHF8
In short: as §1

PHRF1 (RP) = system: PHRF1 (RP)
In short: as §1

RAG2 = system: RAG2
In short: as §1

SP140L = system: SP140L
In short: as §1

TAF3 = system: TAF3
In short: as §1

TRIM66 (PB) = system: TRIM66 (PB)
In short: as §1

[1] = sheet "Array Heatmap", GST-tagged reader, histone peptide array

## H3K14ac (1-32): H3 1-32
AIRE (PP); AIRE (PP), sheet "Array Heatmap", each array performed twice
  Array Heatmap value (peptide array signal): 0.6762
BAZ2B; BAZ2B, sheet "Array Heatmap", each array performed twice
  Array Heatmap value (peptide array signal): 0.5612
BPTF (PB); BPTF (PB), sheet "Array Heatmap", each array performed twice
  Array Heatmap value (peptide array signal): 0.3702
CHD4 (PPCC); CHD4 (PPCC), sheet "Array Heatmap", each array performed twice
  Array Heatmap value (peptide array signal): 0.5914
CHD5 (PCC); CHD5 (PCC), sheet "Array Heatmap", each array performed twice
  Array Heatmap value (peptide array signal): 0.9008
CHD5 (PPCC); CHD5 (PPCC), sheet "Array Heatmap", each array performed twice
  Array Heatmap value (peptide array signal): 0.6129
DIDO1; DIDO1, sheet "Array Heatmap", each array performed twice
  Array Heatmap value (peptide array signal): 0.6524
DPF2 (PPC2W2); DPF2 (PPC2W2), sheet "Array Heatmap", each array performed twice
  Array Heatmap value (peptide array signal): 0.88
ING1; ING1, sheet "Array Heatmap", each array performed twice
  Array Heatmap value (peptide array signal): 0.5563
ING2; ING2, sheet "Array Heatmap", each array performed twice
  Array Heatmap value (peptide array signal): 0.6065
ING3; ING3, sheet "Array Heatmap", each array performed twice
  Array Heatmap value (peptide array signal): 0.5035
ING4; ING4, sheet "Array Heatmap", each array performed twice
  Array Heatmap value (peptide array signal): 0.5113
ING5; ING5, sheet "Array Heatmap", each array performed twice
  Array Heatmap value (peptide array signal): 0.3965
KDM4C (TTP); KDM4C (TTP), sheet "Array Heatmap", each array performed twice
  Array Heatmap value (peptide array signal): 0.5844
KDM5A (1); KDM5A (1), sheet "Array Heatmap", each array performed twice
  Array Heatmap value (peptide array signal): 0.5739
KDM5A (3); KDM5A (3), sheet "Array Heatmap", each array performed twice
  Array Heatmap value (peptide array signal): 0.5824
KDM5B (1); KDM5B (1), sheet "Array Heatmap", each array performed twice
  Array Heatmap value (peptide array signal): 0.7332
KDM5B (3); KDM5B (3), sheet "Array Heatmap", each array performed twice
  Array Heatmap value (peptide array signal): 0.5322
KDM7A; KDM7A, sheet "Array Heatmap", each array performed twice
  Array Heatmap value (peptide array signal): 0.4771
MLL5; MLL5, sheet "Array Heatmap", each array performed twice
  Array Heatmap value (peptide array signal): 0.5315
MORC3 (CW); MORC3 (CW), sheet "Array Heatmap", each array performed twice
  Array Heatmap value (peptide array signal): 0.4902
PHF13; PHF13, sheet "Array Heatmap", each array performed twice
  Array Heatmap value (peptide array signal): 0.6445
PHF21A; PHF21A, sheet "Array Heatmap", each array performed twice
  Array Heatmap value (peptide array signal): 0.5508
PHF23; PHF23, sheet "Array Heatmap", each array performed twice
  Array Heatmap value (peptide array signal): 0.5387
PHF2; PHF2, sheet "Array Heatmap", each array performed twice
  Array Heatmap value (peptide array signal): 0.4742
PHF8; PHF8, sheet "Array Heatmap", each array performed twice
  Array Heatmap value (peptide array signal): 0.4423
PHRF1 (RP); PHRF1 (RP), sheet "Array Heatmap", each array performed twice
  Array Heatmap value (peptide array signal): 0.5867
RAG2; RAG2, sheet "Array Heatmap", each array performed twice
  Array Heatmap value (peptide array signal): 0.2609
SP140L; SP140L, sheet "Array Heatmap", each array performed twice
  Array Heatmap value (peptide array signal): 0.4015
TAF3; TAF3, sheet "Array Heatmap", each array performed twice
  Array Heatmap value (peptide array signal): 0.3178
TRIM66 (PB); TRIM66 (PB), sheet "Array Heatmap", each array performed twice
  Array Heatmap value (peptide array signal): 0.5901

## H3K14ac + K18ac: H3 1-20
AIRE (PP); GST-tagged AIRE (PP), sheet Array Heatmap, each array performed twice
  Array Heatmap signal (histone peptide microarray): 1
BAZ2B; GST-tagged BAZ2B, sheet Array Heatmap, each array performed twice
  Array Heatmap signal (histone peptide microarray): 0.8123
BPTF (PB); GST-tagged BPTF (PB = PHD + Bromodomain), sheet Array Heatmap, each array performed twice
  Array Heatmap signal (histone peptide microarray): 0.357
CHD4 (PPCC); GST-tagged CHD4 (PPCC = Dual PHD + Dual Chromodomain), sheet Array Heatmap, each array performed twice
  Array Heatmap signal (histone peptide microarray): 0.581
CHD5 (PCC); GST-tagged CHD5 (PCC = PHD + Dual Chromodomain), sheet Array Heatmap, each array performed twice
  Array Heatmap signal (histone peptide microarray): 0.8723
CHD5 (PPCC); GST-tagged CHD5 (PPCC = Dual PHD + Dual Chromodomain), sheet Array Heatmap, each array performed twice
  Array Heatmap signal (histone peptide microarray): 0.5768
DIDO1; GST-tagged DIDO1, sheet Array Heatmap, each array performed twice
  Array Heatmap signal (histone peptide microarray): 0.658
DPF2 (PPC2W2); GST-tagged DPF2 (PPC2W2 = Dual PHD + C2W2-type Zn-finger), sheet Array Heatmap, each array performed twice
  Array Heatmap signal (histone peptide microarray): 0.9185
ING1; GST-tagged ING1, sheet Array Heatmap, each array performed twice
  Array Heatmap signal (histone peptide microarray): 0.5141
ING2; GST-tagged ING2, sheet Array Heatmap, each array performed twice
  Array Heatmap signal (histone peptide microarray): 0.6014
ING3; GST-tagged ING3, sheet Array Heatmap, each array performed twice
  Array Heatmap signal (histone peptide microarray): 0.4502
ING4; GST-tagged ING4, sheet Array Heatmap, each array performed twice
  Array Heatmap signal (histone peptide microarray): 0.4542
ING5; GST-tagged ING5, sheet Array Heatmap, each array performed twice
  Array Heatmap signal (histone peptide microarray): 0.355
KDM4C (TTP); GST-tagged KDM4C (TTP = Tandem Tudor domain + PHD), sheet Array Heatmap, each array performed twice
  Array Heatmap signal (histone peptide microarray): 0.5291
KDM5A (1); GST-tagged KDM5A (1), sheet Array Heatmap, each array performed twice
  Array Heatmap signal (histone peptide microarray): 0.555
KDM5A (3); GST-tagged KDM5A (3), sheet Array Heatmap, each array performed twice
  Array Heatmap signal (histone peptide microarray): 0.6717
KDM5B (1); GST-tagged KDM5B (1), sheet Array Heatmap, each array performed twice
  Array Heatmap signal (histone peptide microarray): 0.7675
KDM5B (3); GST-tagged KDM5B (3), sheet Array Heatmap, each array performed twice
  Array Heatmap signal (histone peptide microarray): 0.6502
KDM7A; GST-tagged KDM7A, sheet Array Heatmap, each array performed twice
  Array Heatmap signal (histone peptide microarray): 0.4239
MLL5; GST-tagged MLL5, sheet Array Heatmap, each array performed twice
  Array Heatmap signal (histone peptide microarray): 0.5196
MORC3 (CW); GST-tagged MORC3 (CW = CW-type Zn-finger), sheet Array Heatmap, each array performed twice
  Array Heatmap signal (histone peptide microarray): 0.487
PHF13; GST-tagged PHF13, sheet Array Heatmap, each array performed twice
  Array Heatmap signal (histone peptide microarray): 0.5985
PHF21A; GST-tagged PHF21A, sheet Array Heatmap, each array performed twice
  Array Heatmap signal (histone peptide microarray): 0.5152
PHF23; GST-tagged PHF23, sheet Array Heatmap, each array performed twice
  Array Heatmap signal (histone peptide microarray): 0.5075
PHF2; GST-tagged PHF2, sheet Array Heatmap, each array performed twice
  Array Heatmap signal (histone peptide microarray): 0.4774
PHF8; GST-tagged PHF8, sheet Array Heatmap, each array performed twice
  Array Heatmap signal (histone peptide microarray): 0.3925
PHRF1 (RP); GST-tagged PHRF1 (RP), sheet Array Heatmap, each array performed twice
  Array Heatmap signal (histone peptide microarray): 0.8706
RAG2; GST-tagged RAG2, sheet Array Heatmap, each array performed twice
  Array Heatmap signal (histone peptide microarray): 0.2663
SP140L; GST-tagged SP140L, sheet Array Heatmap, each array performed twice
  Array Heatmap signal (histone peptide microarray): 0.4262
TAF3; GST-tagged TAF3, sheet Array Heatmap, each array performed twice
  Array Heatmap signal (histone peptide microarray): 0.337
TRIM66 (PB); GST-tagged TRIM66 (PB = PHD + Bromodomain), sheet Array Heatmap, each array performed twice
  Array Heatmap signal (histone peptide microarray): 0.934

## H3K14me2: H3 1-20 [Peptide H3K14me2]
AIRE (PP); [1]
  Array Heatmap signal, AIRE (PP): 0.5905
BAZ2B; [1]
  Array Heatmap signal, BAZ2B: 0.5017
BPTF (PB); [1]
  Array Heatmap signal, BPTF (PB): 0.3583
CHD4 (PPCC); [1]
  Array Heatmap signal, CHD4 (PPCC): 0.6389
CHD5 (PCC); [1]
  Array Heatmap signal, CHD5 (PCC): 0.8497
CHD5 (PPCC); [1]
  Array Heatmap signal, CHD5 (PPCC): 0.5851
DIDO1; [1]
  Array Heatmap signal, DIDO1: 0.7549
DPF2 (PPC2W2); [1]
  Array Heatmap signal, DPF2 (PPC2W2): 0.7618
ING1; [1]
  Array Heatmap signal, ING1: 0.5677
ING2; [1]
  Array Heatmap signal, ING2: 0.6018
ING3; [1]
  Array Heatmap signal, ING3: 0.5043
ING4; [1]
  Array Heatmap signal, ING4: 0.4752
ING5; [1]
  Array Heatmap signal, ING5: 0.3792
KDM4C (TTP); [1]
  Array Heatmap signal, KDM4C (TTP): 0.5414
KDM5A (1); [1]
  Array Heatmap signal, KDM5A (1): 0.5072
KDM5A (3); [1]
  Array Heatmap signal, KDM5A (3): 0.5469
KDM5B (1); [1]
  Array Heatmap signal, KDM5B (1): 0.6811
KDM5B (3); [1]
  Array Heatmap signal, KDM5B (3): 0.5212
KDM7A; [1]
  Array Heatmap signal, KDM7A: 0.4126
MLL5; [1]
  Array Heatmap signal, MLL5: 0.5639
MORC3 (CW); [1]
  Array Heatmap signal, MORC3 (CW): 0.4726
PHF13; [1]
  Array Heatmap signal, PHF13: 0.6476
PHF21A; [1]
  Array Heatmap signal, PHF21A: 0.4799
PHF23; [1]
  Array Heatmap signal, PHF23: 0.5616
PHF2; [1]
  Array Heatmap signal, PHF2: 0.4838
PHF8; [1]
  Array Heatmap signal, PHF8: 0.3636
PHRF1 (RP); [1]
  Array Heatmap signal, PHRF1 (RP): 0.7403
RAG2; [1]
  Array Heatmap signal, RAG2: 0.2574
SP140L; [1]
  Array Heatmap signal, SP140L: 0.3561
TAF3; [1]
  Array Heatmap signal, TAF3: 0.2982
TRIM66 (PB); [1]
  Array Heatmap signal, TRIM66 (PB): 0.6527
